The text below walks through data of US20230382916A1, “HETEROARYL HETEROCYCLIC COMPOUNDS AND USES THEREOF” (HUTCHISON MEDIPHARMA LIMITED, priority 2020, published 2023).

The target in experiment [1] is BTK recombinant protein (Homo sapiens (Human), UniProt Q06187). The experiment can be described thus: Determination of biochemical BTK (Z'-LYTE kinase assay). The note with it: 32 μM ATP.
Experiment [2] deals with idiopathic thrombocytopenic purpura induced by anti-mouse CD41 antibodies. The experiment can be described thus: Idiopathic thrombocytopenic purpura induced by anti-CD41 antibody in mice, level of platelets. The experiment is classed as in vivo. The protocol: Male C57BL/6 mice were purchased from Shanghai Lingchang Biotechnology Co., Ltd. (certificate number 20180003011079, initial body weight of 18-20 grams), and were randomly grouped according to Table 4, with 8 mice in each group. […] When modeling, each mouse was intraperitoneally injected with 200 μL of PBS solution containing […] of anti-mouse CD41 antibodies (BD, Cat #: 553487, Lot #: 7026765).
Eight hours and twenty-four hours after modeling, the whole blood was collected and placed in a centrifuge tube coated with 10% citrate-phosphate-dextrose-adenine (CPDA), and the level of platelets (PLT) in the whole blood was measured by an XT-2000i (SYSMEX) automatic blood analyzer (Shanghai Laboratory Animal Research Centre Sino-British SIPPR/B & K Lab Animal Ltd).
The average level of platelets in peripheral blood was analyzed with Graphpad statistical software by one way ANOVA followed by Fisher LSD multiple comparison test, and the p value was calculated, wherein *p<0.05 indicated a statistically significant difference compared with the vehicle control group, **p<0.01 indicated a statistically extremely significant difference compared with the vehicle control group, and ##p<0.01 indicated a statistically extremely significant difference compared with the normal group.
RR %=(PLTtreatment−PLTmodel)/(PLTnaive−PLTmodel)×100%.

pIC50: −log10 of the molar value.

BTK recombinant protein, sequence (Q06187 whole entry): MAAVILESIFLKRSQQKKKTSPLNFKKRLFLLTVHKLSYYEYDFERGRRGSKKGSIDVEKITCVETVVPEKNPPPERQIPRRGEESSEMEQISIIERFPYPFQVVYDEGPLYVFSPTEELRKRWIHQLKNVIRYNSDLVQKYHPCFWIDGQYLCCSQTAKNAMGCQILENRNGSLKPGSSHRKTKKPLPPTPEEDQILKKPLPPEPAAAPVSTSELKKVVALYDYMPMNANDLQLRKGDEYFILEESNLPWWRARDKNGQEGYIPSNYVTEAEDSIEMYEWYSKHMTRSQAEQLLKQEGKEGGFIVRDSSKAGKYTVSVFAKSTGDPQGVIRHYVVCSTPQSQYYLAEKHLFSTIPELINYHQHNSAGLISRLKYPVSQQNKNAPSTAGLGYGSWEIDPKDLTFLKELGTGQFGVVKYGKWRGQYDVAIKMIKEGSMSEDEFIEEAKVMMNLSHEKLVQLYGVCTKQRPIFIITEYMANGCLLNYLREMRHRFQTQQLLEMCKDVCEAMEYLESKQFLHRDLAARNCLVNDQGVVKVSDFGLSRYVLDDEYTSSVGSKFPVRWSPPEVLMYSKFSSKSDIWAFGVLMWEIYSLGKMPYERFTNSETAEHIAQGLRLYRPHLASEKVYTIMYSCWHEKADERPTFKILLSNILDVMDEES

Take `C[C@H]1CN(C2COC2)C[C@H](C)N1c1ccc(Nc2cc(-c3ccnc(-n4ccn5c6c(cc5c4=O)CC(C)(C)C6)c3CO)cn(C)c2=O)nc1` [Compound 1, 2-(5-((5-((2S,6S)-2,6-dimethyl-4-(oxetan-3-yl)piperazin-1-yl)pyridin-2-yl)amino)-3′-(hydroxymethyl)-1-methyl-6-oxo-1,6-dihydro-[3,4′-bipyridin]-2′-yl)-7,7-dimethyl-7,8-dihydro-2H-cyclopenta[4,5]pyrrolo[1,2-a]pyrazin-1(6H)-one]: in experiment [1], the pIC50 (as a rule, the IC50 on a negative log10 scale, so that one unit is a factor of ten) is 8.00. Also, the “recovery rate of platelets” value is on record as 25% in experiment [2] (0.004 mg/kg oral single dose, 8 hours after modeling); 5% in experiment [2] (0.004 mg/kg oral single dose, 24 hours after modeling); 37% in experiment [2] (0.04 mg/kg oral single dose, 8 hours after modeling); 21% in experiment [2] (0.04 mg/kg oral single dose, 24 hours after modeling); 44% in experiment [2] (0.4 mg/kg oral single dose, 8 hours after modeling); 29% in experiment [2] (0.4 mg/kg oral single dose, 24 hours after modeling). In addition, the “recovery rate of platelets” value is 51% in experiment [2] (4 mg/kg oral single dose, 8 hours after modeling) and 29% in experiment [2] (4 mg/kg oral single dose, 24 hours after modeling). The minimum effective dose in experiment [2] (single oral dose, platelets 8 hours after modeling) is on record as 0.04 mg/kg.
